Measured values: patent publication EP1479388A1, “Ready to use gemcitabin solution concentrates” (STADA ARZNEIMITTEL AG, priority 2003, dated 2004)
Values after ≈ are worked out from the molar mass of the structure shown. Counter-ions that a name gives are not always drawn. Like-named read-outs stand apart in the source and are kept apart here.

What was measured:
[1] = Saturation concentration of gemcitabine in aqueous-ethanolic solutions, HPLC (Beispiel 3); type: physicochemical; details: interpolation (Polynom 6. Grades), ca. 66 Vol.% Ethanolanteil, pH 10 +/-0,5
From the text: Um die Sättigungskonzentration von Gemcitabin in wässrig-ethanolischeh Lösungen zu ermitteln, wurden Gemcitabin-Lösungen mit verschiedenen Volumenanteilen an Ethanol hergestellt und analysiert.
Hierzu wurde Gemcitabinhydrochlorid im Ansatzbehälter vorgelegt, mit einer stöchiometrischen Menge an wässrig gelöstem Alkalisierungsmittel (1 N Natronlauge) versetzt, anschließend mit jeweils 80 % der in Vortests ermittelten erforderlichen Mengen an Wasser für Injektionszwecke als auch mit jeweils erforderlichen Mengen an Ethanol versetzt.
Die im Ansatz enthaltenen Bestandteile wurden anschließend unter 6-stündigem Rühren bei Raumtemperatur (19-23 °C) derart gelöst, dass ein ungelöster Bodensatz an Gemcitabinhydrochlorid im Ansatzbehälter verblieb. Der pH-Wert des Ansatzes wurde potentiometrisch bestimmt und erforderlichenfalls mit 1 N Natronlauge bzw. 1 N Salzsäure auf einen pH-Wert von 10 eingestellt, um mit diesem pH-Wert eine vollständige Umsetzung des Gemcitabinhydrochlorids zur gelösten Gemcitabinbase zu erzielen.
Der Ansatz wurde 24 Stunden bei 19-23 °C gelagert. Der pH-Wert wurde anschließend kontrolliert und nur solche klaren Überstände der Ansätze weiterverarbeitet, deren pH-Werte 10 +/- 0,5 betrugen. Diese wurden dann partikelfrei filtriert und der Gehalt an Gemcitabin per HPLC bestimmt.

[2] = Maximum solubility in 66 Vol.-% ethanol after dissolving at 35-45 °C and cooling, HPLC (Beispiel 4); type: physicochemical; details: dissolved at 35-45 °C 6 h, cooled, 24 h at 19-23 °C
Experimental: Die maximale Löslichkeit von Gemcitabinhydrochlorid wurde unter weiterer Verwendung von 1 N Natronlauge, Wasser für Injektionszwecke und absolutem Ethanol, in als hierfür optimal erkanntem 66 Vol.-%-igem Anteil bei gesteigerten Lösungstemperaturen (35-45 °C, 6 Stunden Rühren) und anschließendem Abkühlen auf Raumtemperatur (19-23 °C) und 24-stündiger Lagerung bei 19-23 °C ermittelt. Hierbei wurde im partikelfreien Überstand der gelagerten Lösungen mittels HPLC ein Gehalt von 95,1 mg/ml Gemcitabin bzw. 108,3 mg/ml Gemcitabinhydrochlorid bestimmt.

[3] = cited from earlier work

solubility thermodynamic ([1]; 66 vol% aqueous ethanol, pH 10, organic solvent or mixture, read-out: Maximum der Gemcitabin-Löslichkeit) [mg/mL]	solubility at 24 h ([2]; 66 vol% aqueous ethanol, organic solvent or mixture, read-out: maximale Löslichkeit (Gehalt im partikelfreien Überstand)) [mg/mL]	Maximum der Gemcitabin-Löslichkeit [1] [mg/mL]	maximale Löslichkeit (Gehalt im partikelfreien Überstand) ([2]; 1440 min)	Compound	Löslichkeit des Gemcitabins in Wasser ([3]; pH-Bereich von 2,7 bis 3,3)	Löslichkeit des Gemcitabins in Wasser ([3]; pH-Wert von 5)	Löslichkeit des Gemcitabins in Wasser ([3]; pH-Wert von 7)	Löslichkeit des Gemcitabins in Wasser ([3]; pH-Wert von 9)
50 (≈ 190 mM)	95.1 (≈ 361 mM)	–	–	Nc1ccn([C@@H]2O[C@H](CO)[C@@H](O)C2(F)F)c(=O)n1 [Gemcitabin, 2'-Deoxy-2',2'-difluorcytidin]	ca. 38 mg/ml	16,0 mg/ml	15,3 mg/ml	15,8 mg/ml
–	–	55	108,3 mg/ml	Nc1ccn([C@@H]2O[C@H](CO)[C@@H](O)C2(F)F)c(=O)n1 [Gemcitabinhydrochlorid]	–	–	–	–
